Data on 14 compounds can be found in patent US6509356B1, “1-(4-(Substituted alkoxy)benzyl)naphthalene compounds having estrogen inhibitory activity” (Eli Lilly and Company, priority 1997, dated 2003).

Counter-ions that a name gives are not always drawn.

The subject of this assay is MCF-7 breast adenocarcinoma cells. Description: MCF-7 Proliferation Assay (tritiated thymidine incorporation). The assay is classed as cell-based. The note with it: Homo sapiens, MCF7; MCF-7 cells (ATCC HTB 22) in DCC-FBS assay medium, 48 hours with drug, then tritiated thymidine pulse for 4 hours; read-out: Inhibition of MCF7 cell proliferation: ED50. The text has this:
Biological Activity of the Compounds of the Present Invention—MCF-7 Proliferation Assay
The data reported in each of the Examples given above for inhibition of MCF-7 cell proliferation were obtained in an assay which determined each compound's ability to inhibit the proliferation of MCF-7 breast adenocarcinoma cells.
In the assay, these cells (ATCC HTB 22) are maintained in minimal essential medium, phenol red-free, (Sigma, St. Louis, Mo.) supplemented with 10% (V/V) fetal bovine serum (FBS), L-glutamine (2 mM), sodium pyruvate (1 mM), HEPES {(N-[2-hydroxyethyl]piperazine-N′-[2-ethanesulfonic acid] 10 mM}, non-essential amino acids and bovine insulin (1 ug/mL) (maintenance medium). Ten days prior to assay, MCF-7 cells are switched to maintenance medium supplemented with 10% dextran coated charcoal stripped fetal bovine serum (DCC-FBS) assay medium) in place of 10% FBS to deplete internal stores of steroids. MCF-7 cells are removed from maintenance flasks using cell dissociation medium (Ca++/Mg++ free HBSS (phenol red-free) supplemented with 10 mM HEPES and 2 mM EDTA). Cells are washed twice with assay medium and adjusted to 80,000 cells/mL. Approximately […] (8,000 cells) are added to flat-bottom microculture wells (Costar 3596) and incubated at 37° C. in a 5% CO2 humidified incubator for 48 hours to allow for cell adherence and equilibration after transfer. Serial dilutions of drugs or DMSO as a diluent control are prepared in assay medium and […] to triplicate microcultures followed by […] assay medium for a final volume of […]. After an additional 48 hours at 37° C. in a 5% CO2 humidified incubator, microcultures are pulsed with tritiated thymidine (1 uCi/well) for 4 hours. Cultures are terminated by freezing at −70° C. for 24 hours followed by thawing and harvesting of microcultures using a Skatron Semiautomatic Cell Harvester. Samples are counted by liquid scintillation using a Wallac BetaPlace β counter.
(Incorporation of labelled thymidine or its analogues reports DNA synthesis.)

Consider `CN1CCCC1COc1ccc(Cc2c(-c3ccc(O)cc3)ccc3cc(O)ccc23)cc1` (centres unmarked) [Example 1, 6-Hydroxy-2-(4-hydroxyphenyl)-1-[4-(N-methylpyrrolidin-2-yl)methoxy-benzyl]naphthalene hydrochloride], for which the EC50 stood at 0.5 nM.
Turning to `CCN(CC)CCCOc1ccc(Cc2c(-c3ccc(O)cc3)ccc3cc(O)ccc23)cc1` [Example 2, 6-Hydroxy-2-(4-hydroxyphenyl)-1-[4-(3-(N,N-diethylamino)-propoxy)benzyl]naphthalene hydrochloride], the EC50 worked out at 0.9 nM.
As for `CC(C)N(CCOc1ccc(Cc2c(-c3ccc(O)cc3)ccc3cc(O)ccc23)cc1)C(C)C` [Example 3, 6-hydroxy-2-(4-hydroxyphenyl)-1-[4-(2-(N,N-diisopropyl-amino)ethoxy)benzyl]naphthalene hydrochloride], the EC50 turned out to be 2 nM.
In the case of `CN1CCCCC1COc1ccc(Cc2c(-c3ccc(O)cc3)ccc3cc(O)ccc23)cc1` (centres unmarked) [Example 4, 6-hydroxy-2-(4-hydroxyphenyl)-1-[4-(N-methylpiperidin-2-yl)-methoxybenzyl]naphthalene hydrochloride], the EC50 was determined as 2 nM.
As for `CN1CCCC(COc2ccc(Cc3c(-c4ccc(O)cc4)ccc4cc(O)ccc34)cc2)C1` (centres unmarked) [Example 5, 6-hydroxy-2-(4-hydroxyphenyl)-1-[4-(N-methylpiperidin-3-yl)-methoxybenzyl]naphthalene hydrochloride], the figure is 2 nM; as for `CCCCN(CCCC)CCOc1ccc(Cc2c(-c3ccc(O)cc3)ccc3cc(O)ccc23)cc1` [Example 6, 6-hydroxy-2-(4-hydroxyphenyl)-1-[4-(2-(N,N-di-n-butylamino)-ethoxy)benzyl]naphthalene hydrochloride], 2 nM; as for `CCCCN(CCCC)CCCOc1ccc(Cc2c(-c3ccc(O)cc3)ccc3cc(O)ccc23)cc1` [Example 7, 6-hydroxy-2-(4-hydroxyphenyl)-1-[4-(3-(N,N-di-n-butylamino)-propoxy)benzyl]naphthalene hydrochloride], 4 nM.
As for `CC(=O)c1ccc(N2CCN(CCOc3ccc(Cc4c(-c5ccc(O)cc5)ccc5cc(O)ccc45)cc3)CC2)cc1` [Example 8, 6-hydroxy-2-(4-hydroxyphenyl)-1-[4-(2-(4-(4-acetylphenyl)piperazin-1-yl)ethoxy)benzyl]-naphthalene dihydrochloride], the figure is 4 nM.
As for `Oc1ccc(-c2ccc3cc(O)ccc3c2Cc2ccc(OCCCNc3cccc4ccccc34)cc2)cc1` [Example 9, 6-hydroxy-2-(4-hydroxyphenyl)-1-[4-(3-(naphth-1-ylamino)propoxy)benzyl]naphthalene hydrochloride], the figure is 9 nM; as for `CCN(CCOc1ccc(Cc2c(-c3ccc(O)cc3)ccc3cc(O)ccc23)cc1)C(=O)Nc1cc(Cl)ccc1C` [Example 11, N-ethyl-N-[4-(2-(6-hydroxy-2-(4-hydroxyphenyl)naphth-1-yl-methyl)phenoxy)ethyl]-N′-5-chloro-2-methylphenyl urea], 10 nM.
For `CC1CN(CCOc2ccc(Cc3c(-c4ccc(O)cc4)ccc4cc(O)ccc34)cc2)CC(C)O1` (centres unmarked) [Example 13, 6-hydroxy-2-(4-hydroxyphenyl)-1-[4-(2-(2,6-dimethylmorpholin-4-yl)ethoxy)benzyl]naphthalene hydrochloride], the EC50 came to 20 nM.
Take `Oc1ccc(-c2ccc3cc(O)ccc3c2Cc2ccc(OCCCN3CCC4(CCCCC4)CC3)cc2)cc1` [Example 14, hydrochloride]: the EC50 was determined as 30 nM.
As for `O=C1CCCN1CCOc1ccc(Cc2c(-c3ccc(O)cc3)ccc3cc(O)ccc23)cc1` [Example 15, 6-hydroxy-2-(4-hydroxyphenyl)-1-[4-(2-(pyrollidinon-1-yl)ethoxy)benzyl]naphthalene], the figure is 40 nM; as for `O=C1CCCN1CCCOc1ccc(Cc2c(-c3ccc(O)cc3)ccc3cc(O)ccc23)cc1` [Example 16, 6-hydroxy-2-(4-hydroxyphenyl)-1-[4-(3-(pyrollidinon-1-yl)propoxy)benzyl]naphthalene], 30 nM.
